What was measured:
Type in all cases: in vivo
[1] = system: Alopecurus myosuroides (ALOMY); assay: Example B pre-emergence herbicidal activity, glasshouse pot test; conditions: 312 h, rate 250 g/ha, evaluated after 13 days, scale 0-100, read-out: Pre-emergence activity ALOMY (100=total damage to plant; 0=no damage to plant)
Protocol: (§1) Seeds of a variety of test species were sown in standard soil in pots. After cultivation for one day (pre-emergence) or after 8 days cultivation (post-emergence) under controlled conditions in a glasshouse (at 24/16° C., day/night; 14 hours light; 65% humidity), the plants were sprayed with an aqueous spray solution derived from the formulation of the technical active ingredient of formula I in acetone/water (50:50) solution containing 0.5% Tween 20 (polyoxyethelyene sorbitan monolaurate, CAS RN 9005-64-5). The test plants were then grown in a glasshouse under controlled conditions in a glasshouse (at 24/16° C., day/night; 14 hours light; 65% humidity) and watered twice daily. After 13 days for pre and post-emergence, the test was evaluated (100=total damage to plant; 0=no damage to plant). Setaria faberi (SETFA), Lolium perenne (LOLPE), Alopecurus myosuroides (ALOMY), Echinochloa crus-galli (ECHCG), and Avena fatua (AVEFA). Pre-Emergence Activity

Avena fatua (AVEFA) [2] = assay: as above; conditions: 312 h, rate 250 g/ha, evaluated after 13 days, scale 0-100, read-out: Pre-emergence activity AVEFA (100=total damage to plant; 0=no damage to plant)
Protocol: as §1

[3] = system: Echinochloa crus-galli (ECHCG); assay: as above; conditions: 312 h, rate 250 g/ha, evaluated after 13 days, scale 0-100, read-out: Pre-emergence activity ECHCG (100=total damage to plant; 0=no damage to plant)
Protocol: as §1

Lolium perenne (LOLPE) [4] = assay: as above; conditions: 312 h, rate 250 g/ha, evaluated after 13 days, scale 0-100, read-out: Pre-emergence activity LOLPE (100=total damage to plant; 0=no damage to plant)
Protocol: as §1

[5] = system: Alopecurus myosuroides (ALOMY); assay: Example B post-emergence herbicidal activity, glasshouse pot test; conditions: 312 h, rate 250 g/ha, evaluated after 13 days, scale 0-100, read-out: Post-emergence activity ALOMY (100=total damage to plant; 0=no damage to plant)
Protocol: as §1, with “Post-Emergence” for “Pre-Emergence”

Avena fatua (AVEFA) [6] = assay: as above; conditions: 312 h, rate 250 g/ha, evaluated after 13 days, scale 0-100, read-out: Post-emergence activity AVEFA (100=total damage to plant; 0=no damage to plant)
Protocol: as §1, with “Post-Emergence” for “Pre-Emergence”

[7] = system: Echinochloa crus-galli (ECHCG); assay: as above; conditions: 312 h, rate 250 g/ha, evaluated after 13 days, scale 0-100, read-out: Post-emergence activity ECHCG (100=total damage to plant; 0=no damage to plant)
Protocol: as §1, with “Post-Emergence” for “Pre-Emergence”

Lolium perenne (LOLPE) [8] = assay: as above; conditions: 312 h, rate 250 g/ha, evaluated after 13 days, scale 0-100, read-out: Post-emergence activity LOLPE (100=total damage to plant; 0=no damage to plant)
Protocol: as §1, with “Post-Emergence” for “Pre-Emergence”

SMILES	pest or weed control at 250 g/ha [1]	pest or weed control at 250 g/ha (Avena fatua (AVEFA) [2])	pest or weed control at 250 g/ha [3]	pest or weed control at 250 g/ha (Lolium perenne (LOLPE) [4])	pest or weed control at 250 g/ha [5]	pest or weed control at 250 g/ha (Avena fatua (AVEFA) [6])	pest or weed control at 250 g/ha [7]	pest or weed control at 250 g/ha (Lolium perenne (LOLPE) [8])
CCc1ccc(-c2ccc(Cl)cc2F)cc1C1=C(O)CCCC1=O [Compound T45]	20%	20%	100%	100%	40%	90%	100%	100%
CCc1ccc(-c2ccc(Cl)cc2F)cc1C1=C(O)CC(C)(C)CC1=O [Compound T32]	0%	30%	80%	80%	40%	70%	100%	100%
CCc1ccc(-c2ccc(Cl)c(F)c2F)cc1C1=C(O)C(C)(C)CCC1=O [Compound T16]	30%	20%	90%	80%	50%	90%	100%	90%
CCc1ccc(-c2ccc(Cl)c(OC)c2)cc1C1=C(O)CCCC1=O [Compound T50]	20%	40%	90%	0%	70%	80%	100%	80%
CCc1ccc(-c2c(F)cc(Cl)cc2F)cc1C1=C(O)CC(C)(C)CC1=O [Compound T28]	20%	40%	100%	90%	30%	50%	100%	100%
CCc1ccc(-c2ccc(Cl)cc2Cl)cc1C1=C(O)C(C)(C)CCC1=O [Compound T18]	30%	20%	90%	80%	30%	40%	90%	80%
CCc1ccc(-c2ccc(Cl)nc2Cl)cc1C1=C(O)C(C)(C)CCC1=O [Compound T12]	0%	0%	0%	0%	0%	0%	90%	0%
CCc1ccc(-c2ccc(Cl)c(F)c2)cc1C1=C(O)CCCC1=O [Compound T56]	30%	20%	100%	90%	60%	100%	100%	100%
CCc1ccc(-c2ccc(Cl)c(OC)c2)cc1C1=C(O)CC(C)(C)CC1=O [Compound T23]	40%	20%	90%	70%	90%	60%	100%	100%
CCc1ccc(-c2c(F)cc(Cl)cc2F)cc1C1=C(O)C(C)(C)CCC1=O [Compound T13]	0%	0%	40%	50%	0%	0%	100%	50%
CCc1ccc(-c2ccc(Cl)s2)cc1C1=C(O)CC(C)(C)CC1=O [Compound T26]	20%	0%	100%	100%	30%	0%	80%	70%
CCc1ccc(-c2ccc(Cl)c(F)c2F)cc1C1=C(O)CC(C)(C)CC1=O [Compound T30]	0%	20%	70%	70%	80%	60%	100%	100%
CCc1ccc(-c2ccc(Cl)c(OC)c2)cc1C1=C(O)C(C)(C)CC(C)(C)C1=O [Compound T66]	10%	0%	90%	30%	30%	50%	100%	30%
CCc1ccc(-c2ccc(Cl)c(F)c2)cc1C1=C(O)C(C)(C)CCC1=O [Compound T10]	0%	20%	100%	90%	70%	90%	100%	90%
CCc1ccc(-c2ccc(C(F)(F)F)cc2)cc1C1=C(O)CC(C)(C)CC1=O [Compound T34]	20%	0%	50%	30%	100%	100%	100%	100%
CCc1ccc(-c2ccc(Cl)c(F)c2F)cc1C1=C(O)C(C)(C)CC(C)(C)C1=O [Compound T62]	60%	50%	90%	90%	60%	80%	80%	80%
CCc1ccc(-c2ccc(Cl)nc2Cl)cc1C1=C(O)CCCC1=O [Compound T57]	0%	0%	20%	10%	50%	40%	80%	60%
CCc1ccc(-c2ccc(Cl)cc2C)cc1C1=C(O)CC(C)(C)CC1=O [Compound T21]	0%	30%	40%	50%	0%	0%	80%	70%
CCc1ccc(-c2ccc(Cl)c(F)c2Cl)cc1C1C(=O)C(C)(C)CC(C)(C)C1=O [Compound T63]	20%	50%	90%	90%	20%	40%	80%	80%
